The source of these data is US10821115B2, “Compounds that inhibit Mcl-1 protein” (priority 2017, dated 2020).

Assay [1] relates to human multiple myeloma cell line, OPM-2. Briefly: Cell viability assay (OPM-2 10 FBS), CellTiter-Glo. It counts as cell-based. An outline of the steps: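 OPM-2 cells at 3000 cells/well in RPMI 1640 with 10% FBS were exposed to serially diluted compounds for 16 h at 37 °C, 5% CO2.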
(In general: Cellular ATP, detected with luciferase, serves as a proxy for viable cell number.)

In assay [2] the target is recombinant human Mcl-1 (residues 171-327) / Bim interaction (Homo sapiens (Human), UniProt Q07820). Briefly: biochemical. As to conditions: read-out: Mcl-1 HTRF IC50. It counts as binding. Background: In TR-FRET formats the signal depends on donor and acceptor labels being close together.
Where [3] appears, read: Homo sapiens, OPM-2, 16 h, read-out: OPM-2 10% FBS IC50 IP, OPM-2 cells, 10% FBS, 16 h, CellTiter-Glo.
[4] abbreviates: TR-FRET, Mcl-1(171-327) / biotin-Bim (51-76).
Where [5] appears, read: Homo sapiens, OPM-2, 16 h, read-out: OPM-2 10% FBS IC50 IP, OPM-2 cells, 10% FBS, 16 h incubation.
The mark [6] stands for this setting: 0.1 nM Mcl-1(171-327), 0.05 nM biotin-Bim (51-76).
[7] abbreviates: read-out: OPM-2 10% FBS IC50 IP, OPM-2 cells, 10% FBS, 16 h incubation.

Where two headings read alike, the source gives them in different places.

By IC50 is commonly meant the concentration needed to halve the response being measured.

Sequence of recombinant human Mcl-1 (residues 171-327) / Bim interaction (Q07820 171-327): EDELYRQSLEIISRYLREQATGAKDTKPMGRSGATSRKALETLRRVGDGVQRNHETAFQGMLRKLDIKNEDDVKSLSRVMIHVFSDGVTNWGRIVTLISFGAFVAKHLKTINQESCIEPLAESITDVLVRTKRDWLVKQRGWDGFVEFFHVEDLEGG

Regarding `C[C@@H]1[C@@H](C)C/C=C/[C@](O)(c2ncnn2C)[C@@H]2CC[C@H]2CN2C[C@@]3(CCCc4cc(Cl)ccc43)COc3ccc(cc32)C(=O)NS1(=O)=O` [Example 100221, (1S,3′R,6′R,7′R,8′E,11′S,12′R)-6-chloro-7′-hydroxy-11′,12′-dimethyl-7′-(1-methyl-1H-1,2,4-triazol-5-yl)-3,4-dihydro-2H,15′H-spiro[naphthalene-1,22′-[20]oxa[13]thia[1,14]diazatetracyclo [14.7.2.0~3,6~.0~19,24~]pentacosa[8,16,18,24]tetraen]-15′-one 13′,13′-dioxide], the half-inhibitory concentration (IC50) in assay [1] (setting [3]) is 776 nM; in assay [2] (setting [4]), 0.525 nM.

For the molecule `CO[C@@]1(c2csc(C)n2)/C=C/C[C@H](C)[C@@H](C)S(=O)(=O)NC(=O)c2ccc3c(c2)N(C[C@@H]2CC[C@H]21)C[C@@]1(CCCc2cc(Cl)ccc21)CO3` [Example 100517, (1S,3′R,6′R,7′S,8′E,11′S,12′R)-6-chloro-7′-methoxy-11′,12′-dimethyl-7′-(2-methyl-1,3-thiazol-4-yl)-3,4-dihydro-2H,15′H-spiro[naphthalene-1,22′-[20]oxa[13]thia[1,14]diazatetracyclo [14.7.2.0~3,6~.0~19,24~]pentacosa[8,16,18,24]tetraen]-15′-one 13′,13′-dioxide], the IC50 in assay [1] (setting [3]) is 3460 nM; in assay [2] (setting [4]), 1.06 nM.

For the molecule `CNC[C@]1(OC)/C=C/C[C@H](C)[C@@H](C)S(=O)(=O)NC(=O)c2ccc3c(c2)N(C[C@@H]2CC[C@H]21)C[C@@]1(CCCc2cc(Cl)ccc21)CO3` [Example 65, (1S,3′R,6′R,7′S,8′E,11′S,12′R)-6-chloro-7′-methoxy-11′,12′-dimethyl-7′-((methylamino)methyl)-3,4-dihydro-2H,15′H-spiro[naphthalene-1,22′-[20]oxa[13]thia[1,14]diazatetracyclo [14.7.2.0~3,6~.0~19,24~]pentacosa[8,16,18,24]tetraen]-15′-one 13′,13′-dioxide], the IC50 is 1500 nM in assay [1] (setting [5]) and 0.451 nM in assay [2] (setting [6]).

Consider `CO[C@@]1(C)/C=C/C[C@H](C)[C@@H](CCO)S(=O)(=O)NC(=O)c2ccc3c(c2)N(C[C@@H]2CC[C@H]21)C[C@@]1(CCCc2cc(Cl)ccc21)CO3` (single isomer, unassigned) [Example 100593], for which the IC50 in assay [1] (setting [3]) was determined as 215 nM; in assay [2] (setting [4]) it was 0.464 nM.

As for `CO[C@]1(CN2CC[C@H]3CCCC[C@@H]3C2)/C=C/C[C@H](C)[C@@H](C)S(=O)(=O)NC(=O)c2ccc3c(c2)N(C[C@@H]2CC[C@H]21)C[C@@]1(CCCc2cc(Cl)ccc21)CO3` (single isomer, unassigned) [Example 89], the concentration for half-maximal inhibition (IC50) was determined as 8210 nM in assay [1] (setting [7]) and 3.75 nM in assay [2] (setting [6]).

As to `C[C@@H]1[C@@H](C)C/C=C/[C@@](O)(c2ncccn2)[C@@H]2CC[C@H]2CN2C[C@@]3(CCCc4cc(Cl)ccc43)COc3ccc(cc32)C(=O)NS1(=O)=O` [Example 100275, (1S,3′R,6′R,7′S,8′E,11′S,12′R)-6-chloro-7′-hydroxy-11′,12′-dimethyl-7′-(2-pyrimidinyl)-3,4-dihydro-2H,15′H-spiro[naphthalene-1,22′-[20]oxa[13]thia[1,14]diazatetracyclo [14.7.2.0~3,6~.0~19,24~]pentacosa[8,16,18,24]tetraen]-15′-one 13′,13′-dioxide], the IC50 in assay [1] (setting [3]) came to 309 nM; in assay [2] (setting [4]), 0.113 nM.

`CO[C@@]1(CN2CCCN(C(C)C)CC2)/C=C/C[C@H](C)[C@@H](C)S(=O)(=O)NC(=O)c2ccc3c(c2)N(C[C@@H]2CC[C@H]21)C[C@@]1(CCCc2cc(Cl)ccc21)CO3` [Example 331]: the concentration for half-maximal inhibition (IC50) worked out at 230 nM in assay [1] (setting [7]) and 0.184 nM in assay [2] (setting [6]).

Turning to `COCC[C@@H]1[C@@H](C)C/C=C/[C@](CN2CCN3CCCC[C@@H]3C2)(OC)[C@@H]2CC[C@H]2CN2C[C@@]3(CCCc4cc(Cl)ccc43)COc3ccc(nc32)C(=O)NS1(=O)=O` [Example 21, (1S,3′R,6′R,7′S,8′E,11′S,12′R)-6-chloro-7′-methoxy-12′-(2-methoxyethyl)-11′-methyl-7′-((9aR)-octahydro-2H-pyrido[1,2-a]pyrazin-2-ylmethyl)-3,4-dihydro-2H, 15′H-spiro[naphthalene-1,22′-[20]oxa[13]thia[1,14,25]triazatetracyclo[14.7.2.0˜3,6˜.0˜19,24˜]pentacosa[8,16,18,24]tetraen]-15′-one 13′,13′-dioxide], the concentration for half-maximal inhibition (IC50) in assay [1] (setting [5]) came to 47 nM; in assay [2] (setting [6]), 0.156 nM.

For `CO[C@]1(CC=O)/C=C/C[C@H](C)[C@@H](C)S(=O)(=O)NC(=O)c2ccc3c(c2)N(C[C@@H]2CC[C@H]21)C[C@@]1(CCCc2cc(Cl)ccc21)CO3` [Example 100322, ((1S,3′R,6′R,7′R,8′E,11′S,12′R)-6-chloro-7′-methoxy-11′,12′-dimethyl-13′,13′-dioxido-15′-oxo-3,4-dihydro-2H-spiro[naphthalene-1,22′-[20]oxa[13]thia[1,14]diazatetracyclo [14.7.2.0~3,6~.0~19,24~]pentacosa[8,16,18,24]tetraen]-7′-yl)acetaldehyde], the IC50 in assay [1] (setting [3]) turned out to be 1540 nM; in assay [2] (setting [4]), 2.23 nM.

Take `CO[C@]1(CN2CCN(C)CC2)/C=C/C[C@H](C)[C@@H](C)S(=O)(=O)NC(=O)c2ccc3c(c2)N(C[C@@H]2CC[C@H]21)C[C@@]1(CCCc2cc(Cl)ccc21)CO3` [Example 62]: the half-inhibitory concentration (IC50) in assay [1] (setting [5]) was 110 nM; in assay [2] (setting [6]), 0.115 nM.

`CO[C@]1(C2SCCCS2)/C=C/[C@H](C)[C@H](C)CS(=O)(=O)NC(=O)c2ccc3c(c2)N(C[C@@H]2CC[C@H]21)C[C@@]1(CCCc2cc(Cl)ccc21)CO3` [Example 100569, (1S,3′R,6′R,7′R,8′E,10′S,11′S)-6-chloro-7′-(1,3-dithian-2-yl)-7′-methoxy-10′,11′-dimethyl-3,4-dihydro-2H,15′H-spiro[naphthalene-1,22′-[20]oxa[13]thia[1,14]diazatetracyclo [14.7.2.0~3,6~.0~19,24~]pentacosa[8,16,18,24]tetraen]-15′-one 13′,13′-dioxide]: the IC50 in assay [1] (setting [3]) was 2000 nM; in assay [2] (setting [4]), 2.48 nM.

In the case of `CO[C@@]1(CN2CCN3CCS(=O)(=O)C[C@@H]3C2)/C=C/C[C@H](C)[C@@H](C)S(=O)(=O)NC(=O)c2ccc3c(c2)N(C[C@@H]2CC[C@H]21)C[C@@]1(CCCc2cc(Cl)ccc21)CO3` (single isomer, unassigned) [Example 231], the 50% inhibitory concentration (IC50) in assay [1] (setting [7]) worked out at 98 nM; in assay [2] (setting [6]), 0.061 nM.

As for `COCc1nc(C[C@]2(OC)/C=C/C[C@H](C)[C@@H](C)S(=O)(=O)NC(=O)c3ccc4c(c3)N(C[C@@H]3CC[C@H]32)C[C@@]2(CCCc3cc(Cl)ccc32)CO4)oc1C` [Example 100585, (1S,3′R,6′R,7′S,8′E,11′S,12′R)-6-chloro-7′-methoxy-7′-((4-(methoxymethyl)-5-methyl-1,3-oxazol-2-yl)methyl)-11′,12′-dimethyl-3,4-dihydro-2H,15′H-spiro[naphthalene-1,22′-[20]oxa[13]thia[1,14]diazatetracyclo [14.7.2.0~3,6~.0~19,24~]pentacosa[8,16,18,24]tetraen]-15′-one 13′,13′-dioxide], the IC50 was found to be 696 nM in assay [1] (setting [3]) and 0.057 nM in assay [2] (setting [4]).

With `Cc1ccc([C@@]2(O)/C=C/C[C@H](C)[C@@H](C)S(=O)(=O)NC(=O)c3ccc4c(c3)N(C[C@@H]3CC[C@H]32)C[C@@]2(CCCc3cc(Cl)ccc32)CO4)cn1` [Example 100407, (1S,3′R,6′R,7′R,8′E,11′S,12′R)-6-chloro-7′-hydroxy-11′,12′-dimethyl-7′-(6-methyl-3-pyridinyl)-3,4-dihydro-2H,15′H-spiro[naphthalene-1,22′-[20]oxa[13]thia[1,14]diazatetracyclo [14.7.2.0~3,6~.0~19,24~]pentacosa[8,16,18,24]tetraen]-15′-one 13′,13′-dioxide], the IC50 is 516 nM in assay [1] (setting [3]) and 0.278 nM in assay [2] (setting [4]).

For `C[C@@H]1[C@@H](C)CCC[C@](C=O)(CN2CCOCC2)[C@@H]2CC[C@H]2CN2C[C@@]3(CCCc4cc(Cl)ccc43)COc3ccc(cc32)C(=O)NS1(=O)=O` [Example 100337, (1S,3′R,6′R,7′R,11′S,12′R)-6-chloro-11′,12′-dimethyl-7′-(4-morpholinylmethyl)-15′-oxo-3,4-dihydro-2H-spiro[naphthalene-1,22′-[20]oxa[13]thia[1,14]diazatetracyclo [14.7.2.0~3,6~.0~19,24~]pentacosa[16,18,24]triene]-7′-carbaldehyde 13′,13′-dioxide], the IC50 is 2410 nM in assay [1] (setting [3]) and 1.61 nM in assay [2].

`CO[C@]1(CN2CC[C@@H]3CCCC[C@H]3C2)/C=C/C[C@H](C)[C@@H](C)S(=O)(=O)NC(=O)c2ccc3c(c2)N(C[C@@H]2CC[C@H]21)C[C@@]1(CCCc2cc(Cl)ccc21)CO3` (single isomer, unassigned) [Example 90]: the IC50 in assay [1] (setting [7]) amounted to 8980 nM; in assay [2] (setting [6]), 4.66 nM.

On to `C[C@@H]1[C@@H](C)C/C=C/[C@@](O)(c2cnccn2)[C@@H]2CC[C@H]2CN2C[C@@]3(CCCc4cc(Cl)ccc43)COc3ccc(cc32)C(=O)NS1(=O)=O` [Example 100357, (1S,3′R,6′R,7′S,8′E,11′S,12′R)-6-chloro-7′-hydroxy-11′,12′-dimethyl-7′-(2-pyrazinyl)-3,4-dihydro-2H,15′H-spiro[naphthalene-1,22′-[20]oxa[13]thia[1,14]diazatetracyclo [14.7.2.0~3,6~.0~19,24~]pentacosa[8,16,18,24]tetraen]-15′-one 13′,13′-dioxide], for which the values for the IC50 in assay [1] (setting [3]) and in assay [2] (setting [4]) were 399 nM and 0.224 nM, respectively.
